Reference: the supplement of paper PMC11208160

Test: recombinant barcode read abundance after kanamycin selection (control-corrected) (log10(CPM+1)); higher = more efficient recombination; sequences stand for … in AGTGCAGAGAAAATCGGCCAGTTTTCTCTGCCTGCAGTCCGCATGCCGT…ATTTATGCAGCGGACTGCCTTTCTCCCAAAGTGATAAACCGGACAGTATCATGGACCGGTTTTCCCGGTAATCCGTATTTGCAAGGTTGGTTTCACT; site = the 11-nt target
How it was run: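 This pooled E. coli screen matched targets with IS621 bridge RNA target-binding loops. Plating was done in duplicate on chloramphenicol/ampicillin LB agar as a control and on chloramphenicol/ampicillin/kanamycin plus 0.1 mM IPTG. Recombination efficiency reflects barcode counts at recombinant junctions as counts per million, averaged and control-corrected. The figures are log10(CPM+1).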

Row | Sequence | recombinant barcode read abundance (log10)
1 | GAGCCCAAGTGGGTTCTAACCTGTTGCCTAG [GAGCCCACTAG_LTGcore_AG_RTGcore_CT] (site GAGCCCACTAG) (LTG core: AG, RTG core: CT) | 0.0502
2 | GAGCCCAATTGGGTTCTAACCTGTTGCCTAG [GAGCCCACTAG_LTGcore_AT_RTGcore_CT] (site GAGCCCACTAG) (LTG core: AT, RTG core: CT) | 0.204
3 | GAGCCCACATGGGTTCTAACCTGTTGCCTTG [GAGCCCACTAG_LTGcore_CA_RTGcore_CA] (site GAGCCCACTAG) (LTG core: CA, RTG core: CA) | 0.49
4 | GAGCCCACCTGGGTTCTAACCTGTTGCCTAG [GAGCCCACTAG_LTGcore_CC_RTGcore_CT] (site GAGCCCACTAG) (LTG core: CC, RTG core: CT) | 0.29
5 | GAGCCCACGTGGGTTCTAACCTGTTGCCTCG [GAGCCCACTAG_LTGcore_CG_RTGcore_CG] (site GAGCCCACTAG) (LTG core: CG, RTG core: CG) | 0.282
6 | GAGCCCACTTGGGTTCTAACCTGTTGCCTAA [GAGCCCACTAG_LTGcore_CT_RTGcore_TT] (site GAGCCCACTAG) (LTG core: CT, RTG core: TT) | 0.912
7 | GAGCCCACTTGGGTTCTAACCTGTTGCCTAC [GAGCCCACTAG_LTGcore_CT_RTGcore_GT] (site GAGCCCACTAG) (LTG core: CT, RTG core: GT) | 0.369
8 | GAGCCCACTTGGGTTCTAACCTGTTGCCTAG [GAGCCCACTAG_LTGcore_CT_RTGcore_CT] (site GAGCCCACTAG) (LTG core: CT, RTG core: CT) | 1.45
9 | GAGCCCACTTGGGTTCTAACCTGTTGCCTCT [GAGCCCACTAG_LTGcore_CT_RTGcore_AG] (site GAGCCCACTAG) (LTG core: CT, RTG core: AG) | 0
10 | GAGCCCACTTGGGTTCTAACCTGTTGCCTTG [GAGCCCACTAG_LTGcore_CT_RTGcore_CA] (site GAGCCCACTAG) (LTG core: CT, RTG core: CA) | 0.835
11 | GAGCCCACTTGGGTTCTAACCTGTTGCCTTT [GAGCCCACTAG_LTGcore_CT_RTGcore_AA] (site GAGCCCACTAG) (LTG core: CT, RTG core: AA) | 0.37
12 | GAGCCCAGGTGGGTTCTAACCTGTTGCCTCC [GAGCCCACTAG_LTGcore_GG_RTGcore_GG] (site GAGCCCACTAG) (LTG core: GG, RTG core: GG) | 0.596
13 | GAGCCCAGTTGGGTTCTAACCTGTTGCCTAC [GAGCCCACTAG_LTGcore_GT_RTGcore_GT] (site GAGCCCACTAG) (LTG core: GT, RTG core: GT) | 0.0734
14 | GAGGCCTAATGGGTTCTAACCTGTTGCCATT [GAGGCCTCTTG_LTGcore_AA_RTGcore_AA] (site GAGGCCTCTTG) (LTG core: AA, RTG core: AA) | 0.223
15 | GAGGCCTACTGGGTTCTAACCTGTTGCCAAG [GAGGCCTCTTG_LTGcore_AC_RTGcore_CT] (site GAGGCCTCTTG) (LTG core: AC, RTG core: CT) | 0.0351
16 | GAGGCCTACTGGGTTCTAACCTGTTGCCAGT [GAGGCCTCTTG_LTGcore_AC_RTGcore_AC] (site GAGGCCTCTTG) (LTG core: AC, RTG core: AC) | 0.0631
17 | GAGGCCTATTGGGTTCTAACCTGTTGCCAAG [GAGGCCTCTTG_LTGcore_AT_RTGcore_CT] (site GAGGCCTCTTG) (LTG core: AT, RTG core: CT) | 0.196

Row | Sequence | recombinant barcode read abundance (log10)
18 | GAGGCCTATTGGGTTCTAACCTGTTGCCAAT [GAGGCCTCTTG_LTGcore_AT_RTGcore_AT] (site GAGGCCTCTTG) (LTG core: AT, RTG core: AT) | 0.122
19 | GAGGCCTCATGGGTTCTAACCTGTTGCCAAG [GAGGCCTCTTG_LTGcore_CA_RTGcore_CT] (site GAGGCCTCTTG) (LTG core: CA, RTG core: CT) | 0.318
20 | GAGGCCTGATGGGTTCTAACCTGTTGCCAAG [GAGGCCTCTTG_LTGcore_GA_RTGcore_CT] (site GAGGCCTCTTG) (LTG core: GA, RTG core: CT) | 0.0459
21 | GAGGCCTGCTGGGTTCTAACCTGTTGCCAAG [GAGGCCTCTTG_LTGcore_GC_RTGcore_CT] (site GAGGCCTCTTG) (LTG core: GC, RTG core: CT) | 0.235
22 | GAGGCCTGTTGGGTTCTAACCTGTTGCCAAG [GAGGCCTCTTG_LTGcore_GT_RTGcore_CT] (site GAGGCCTCTTG) (LTG core: GT, RTG core: CT) | 0.586
23 | GAGGCCTTATGGGTTCTAACCTGTTGCCAAG [GAGGCCTCTTG_LTGcore_TA_RTGcore_CT] (site GAGGCCTCTTG) (LTG core: TA, RTG core: CT) | 0.145
24 | GAGGCCTTGTGGGTTCTAACCTGTTGCCAAG [GAGGCCTCTTG_LTGcore_TG_RTGcore_CT] (site GAGGCCTCTTG) (LTG core: TG, RTG core: CT) | 0.0876
25 | GAGTCCAACTGGGTTCTAACCTGTTGCGTAG [GAGTCCACTAC_LTGcore_AC_RTGcore_CT] (site GAGTCCACTAC) (LTG core: AC, RTG core: CT) | 0.282
26 | GAGTCCAAGTGGGTTCTAACCTGTTGCGTAG [GAGTCCACTAC_LTGcore_AG_RTGcore_CT] (site GAGTCCACTAC) (LTG core: AG, RTG core: CT) | 0.075
27 | GAGTCCACATGGGTTCTAACCTGTTGCGTAG [GAGTCCACTAC_LTGcore_CA_RTGcore_CT] (site GAGTCCACTAC) (LTG core: CA, RTG core: CT) | 0.829
28 | GAGTCCACTTGGGTTCTAACCTGTTGCGTAC [GAGTCCACTAC_LTGcore_CT_RTGcore_GT] (site GAGTCCACTAC) (LTG core: CT, RTG core: GT) | 0.0332
29 | GAGTCCACTTGGGTTCTAACCTGTTGCGTCA [GAGTCCACTAC_LTGcore_CT_RTGcore_TG] (site GAGTCCACTAC) (LTG core: CT, RTG core: TG) | 0.0372
30 | GAGTCCACTTGGGTTCTAACCTGTTGCGTGC [GAGTCCACTAC_LTGcore_CT_RTGcore_GC] (site GAGTCCACTAC) (LTG core: CT, RTG core: GC) | 0.0181
31 | GAGTCCACTTGGGTTCTAACCTGTTGCGTGG [GAGTCCACTAC_LTGcore_CT_RTGcore_CC] (site GAGTCCACTAC) (LTG core: CT, RTG core: CC) | 0.0805
32 | GAGTCCACTTGGGTTCTAACCTGTTGCGTTA [GAGTCCACTAC_LTGcore_CT_RTGcore_TA] (site GAGTCCACTAC) (LTG core: CT, RTG core: TA) | 0.102
33 | GAGTCCACTTGGGTTCTAACCTGTTGCGTTC [GAGTCCACTAC_LTGcore_CT_RTGcore_GA] (site GAGTCCACTAC) (LTG core: CT, RTG core: GA) | 0.671
34 | GAGTCCAGATGGGTTCTAACCTGTTGCGTTC [GAGTCCACTAC_LTGcore_GA_RTGcore_GA] (site GAGTCCACTAC) (LTG core: GA, RTG core: GA) | 0.157
